Measurements taken from patent US20050234113A1, “Antioxidant and radical scavenging activity of synthetic analogs of desferrithiocin” (University of Florida Research Foundation, Inc., priority 2002, published 2005).
“Also recorded” adds a separate entry of the source. Marks after values point to notes of the source that are not given here.

Experiments:
[1] = Quenching of the ABTS radical cation
Procedure: The iron chelators were tested for their ability to quench the radical cation formed from 2,2′-azinobis(3-ethylbenzothiazoline-6-sulfonic acid) (ABTS) by the method of Re et al. in Free Radic. Biol. Med. 26, 1231-1237 (1999). Briefly, a stock solution of ABTS radical cation was generated by mixing ABTS (10 mM, 2.10 mL) with K2S2O8 (8.17 mM, 0.90 mL) in H2O and […] deep blue-green ABTS radical cation was diluted in sufficient sodium phosphate (10 mM, pH 7.4) to give an A734 of about 0.900. Test compounds were added to a final concentration ranging from 1.25 to 15 μM, and the decrease in A734 was read after 1, 2, 4 and 6 min. The reaction was largely complete by 1 min, but the data presented are based on a 6-min reaction time.
In this assay, a fairly stable radical cation, ABTS^+, was examined, and Trolox, an analog of vitamin E, was used as a positive control. Briefly, the procedure involved generating the blue-green chromophore by the reaction of ABTS with K2S2O8. The radical has absorption maxima at λ=415, 645, 734, and 815 nm. The change in absorbance at 734 nm was noted 6 min after addition of the chelator of interest at various concentrations, and the slope of the ΔA734 vs. ligand concentration line was calculated.
The iron chelators were tested for their ability to quench the radical cation formed from 2,2′-azinobis(3-ethylbenzothiazoline-6-sulfonic acid) (ABTS) by a published method (Re, R., et al., Free Radical Biol. Med. 26:1231-1237 (1999). Briefly, a stock solution of ABTS radical cation was generated by mixing ABTS (10 mM, 2.10 mL) with K2S2O8 (8.17 mM, 0.90 mL) in H2O and allowing the solution to sit in the dark at room temperature for 18 hours. This stock solution of deep blue-green ABTS radical cation was diluted in sufficient sodium phosphate (10 mM, pH 7.4) to give an A734 of about 0.900. Test compounds were added to a final concentration ranging from 1.25 to 15 μM, and the decrease in A734 was read after 1, 2, 4 and 6 min. The reaction was largely complete by 1 min, but the data presented are based on a 6-min. reaction time.
This radical cation decolorization assay utilizes the pre-formed radical monocation of 2,2′-azinobis(3-ethylbenzothiazoline-6-sulfonic acid) (ABTS) and has been used to evaluate the antioxidant capacity of a large number of compounds and mixtures. Briefly, the change in absorbance of the blue-green chromophore was recorded after the addition of the chelator of interest at each of the different concentrations, and the slope of the ΔA734 vs. ligand concentration line was calculated. The positive control for this reaction was Trolox, an analogue of vitamin E. The decrease in A734 as a function of ligand concentration is the comparitor among the five compounds evaluated. Trolox, L1, DFO, (S)-4′-(HO)-DADMDFT and BDU (Table 3). All four of the iron chelators performed better than Trolox; DFO≈BDU>(S)-4′-(HO)-DADMDFT>L1>Trolox. Thus, all of these ligands could be expected to serve as excellent radical scavengers.

iron-loaded hepatocytes = conditions: cited from earlier work
[2] = Prevention of iron-mediated oxidation of ascorbate (ascorbate-mediated reduction of Fe(III)); conditions: ascorbate 100 μM, FeCl3 30 μM, pH 7.4, ligand/Fe ratios 0-3, 40 min
Procedure: (§1) The iron chelators were tested for their ability to diminish the iron-mediated oxidation of ascorbate by the method of Dean and Nicholson (Free Radical Res. 20, 83-101 (1994)). Briefly, a solution of freshly prepared ascorbate (100 μM) in sodium phosphate buffer (5 mM, pH 7.4) was incubated in the presence of FeCl3 (30 μM) and chelator (ligand/Fe ratios varied from 0-3) for 40 min. The A265 was read at 10 and 40 min; the ΔA265 in the presence of ligand was compared to that in its absence.
The role of chelators in either inhibition or promotion of the Fenton reaction is related to their capacity to prevent Fe(III) from being reduced to Fe(II). Fe(II) is required for the reduction of H2O2 to HO. and HO^−. The assay involves spectrophotometrically monitoring the disappearance of ascorbate at pH 7.4 in the presence of FeCl3 and chelator at several ligand/Fe ratios. Under these conditions, ascorbate is oxidized to an L-ascorbyl radical anion. This anion then disproportionates to dehydroascorbic acid and ascorbate.
as §1, with “chelators nitrilotriacetic acid (NTA), 1,2-dimethyl-3-hydroxypyridin-4-one (L1), desferrioxamine B (DFO), (S)-4′-(HO)-DADMDFT, and (S,S)-1,11-Bis[5-(4-carboxyl-4,5-dihydro-1,3-thiazol-2-yl)-2,4-dihydroxyphenyl]-4,8-dioxaundecane (BDU)” for “chelators”, “Nicholson, Free” for “Nicholson (Free”, “20:” for “20,”, “(1994).” for “(1994)).”
The measurement examines the disappearance of ascorbate. It is known that DFO, a hydroxamate chelator that forms a 1:1 complex with Fe(III) at a formation constant of approximately 10^31 M^−1, prevents ascorbate-mediated reduction of Fe(III); it serves as a positive control in the present study. Both NTA and L1 promote ascorbate-mediated reduction of Fe(III) and serve as negative controls.

[3] = tested on: acetic acid-induced colitis; experiment: Acetic acid-induced colitis in rats, densitometric image analysis of colonic damage; type: in vivo
Procedure: (§2) The ligands were administered to the rats intracolonically as a suspension or solution in distilled water (2 mL) at a dose of 650 μmol kg^−1. The drug solutions were made fresh for each experiment. ROWASA®, the pharmaceutical preparation which contains 5-ASA (2 mL, 66.7 mg mL^−1) was given at a dose of 2318 μmol kg^−1. Control rats received distilled water (2 mL), administered intracolonically.
(§3) Animal care and experimental procedures were approved by the Institutional Animal Care and Use Committee. Colitis was induced by a modification of published methods. Briefly, the rats were anesthetized with sodium pentobarbital, 55 mg kg^−1 intraperitoneally. The abdomen was shaved and prepared for surgery. A midline incision was made, and the cecum and proximal colon were exteriorized. A reversible suture was placed at the junction of the cecum and proximal colon. The colon was rinsed with saline (10 mL), and the fluid and intestinal contents were gently expressed out the rectum. A gum-based rectal plug was inserted. The compound of interest, or distilled water in the control animals (2 mL), was injected intracolonically just distal to the ligature. The cecum and proximal colon were returned to the abdominal cavity; the compound was allowed to remain in the gut for 30 min. Then, the cecum and proximal colon were reexteriorized. The rectal plug was removed, and the drug was gently expressed out of the colon. Acetic acid (4%, 2 mL) was injected into the proximal colon over a 15-20-second time period. The acid was allowed to remain in the gut until one minute had passed (i.e., 40-45 seconds after the end of the acid administration). The no acid control rats received distilled water (2 mL), which was administered in the same manner as was the acetic acid. Air (10 mL) was then injected into the proximal colon to expel the acid or water. The cecal/proximal colon ligature was removed, the gut was returned to the abdominal cavity, and the incisions were closed. The animals were allowed to recover overnight and were sacrificed 24 hr later. The entire length of the colon was removed and assessed for damage both densitometrically and biochemically.
Gross damage was quantitated using Photoshop-based image analysis (version 5.0, Adobe Systems, Mountain View, Calif., USA) on an Apple iMac computer. The Magic Wand tool in the Select menu of Photoshop was used to place the cursor on an area of obvious damage. The tolerance level of the Magic Wand tool was set at 30. The damaged areas were automatically selected by using the Similar command in the Select menu. Then, the Eyedropper tool was used to determine the range of the damage in the highlighted areas. Individual colon images were copied to a blank Photoshop page. The Magic Wand tool, with a tolerance set to 100, was used to select all of the pixels in the colon sample. Then, the Histogram tool, which generates a graph in which each vertical line represents the number of pixels associated with a brightness level, was selected in the Image menu. The Red channel was then selected; the darker (damaged areas) appear on the left side of the histogram and the lighter (normal) areas are on the right side. The cursor was then placed on the histogram, the color range determined in an earlier step was selected, and the number of pixels encompassing that range and the percent damage were quantified automatically.
Two means were employed to assess the damage to the colon in the presence and absence of ligand, computer-based image analysis and colonic MPO measurement. The densitometric method removes much of the subjectivity involved in the simple scoring approaches. A digital image of the prepared colonic tissue is taken, and a clearly damaged segment is highlighted on the screen. Once the computer identifies all other segments of the intestine with the same or greater damage, a pixel number is generated; this number makes it possible to calculate the percentage of damaged intestine.

[4] = Quenching of the ABTS radical cation; conditions: Table 5; 6-min reaction, initial OD 1.000
[5] = tested on: Myeloperoxidase (MPO) activity in colonic tissue; experiment: Myeloperoxidase (MPO) assay in colonic tissue of rats with acetic acid-induced colitis; type: in vivo; conditions: 650 μmol kg^−1 intracolonically 30 min before 4% acetic acid, mean ± standard deviation
Procedure: as §2, §3
The activity of MPO was measured in colonic tissue by a modification of the method of Krawisz et al. in Gastroenterology 87, 1344-1350 (1984). Each excised colon was homogenized in 9 volumes of homogenization buffer (0.5% hexadecyltrimethylammonium bromide (HDTMA) in 50 mM sodium acetate, pH 6.0); this homogenate was centrifuged at 1200 g for 20 min at 4° C. A sample of the supernatant (1.8 mL) was transferred into a microcentrifuge tube and stored frozen at −20° C. for up to one week. Prior to assay, the thawed aliquot was centrifuged at about 10,000 g for 15 minutes at 4° C. The final supernatant (33 μL) was added to a solution of o-dianisidine HCl (0.17 mg mL^−1 in 50 mM sodium acetate, pH 6.0, made fresh daily and filtered immediately before use) (950 μL), the mixture was vortexed, and the peroxidase reaction was initiated by the addition of H2O2 to 50 mM sodium acetate, pH 6.0, made fresh daily (16.7 μL). The A470 at room temperature (ca. 23° C.) was read at 15-second intervals for 2 min. The rates were assessed graphically and are presented as change in milliabsorbance units (ΔmAU)/min per g tissue. Under these conditions, 0.1 “Unit” of purified human leukocyte myeloperoxidase (Sigma M-6908) produced a ΔA470 of about 400 mAU/min.
The biochemical measurement involves measuring the level of MPO in a sample of homogenate of the whole rat colon. When the colon is damaged by the acetic acid, there is an extravasation of neutrophils. The extent of this infiltration can serve as a quantitative marker for tissue damage. Although other leukocytes, such as eosinophils and monocytes, also contribute to the inflammatory response, their contribution is small; the majority of the cells recruited during the acute inflammatory response are neutrophils. […]

[6] = Table 1, A734, six-minute reaction, pH 7.4, 1.25 to 15 μM

| SMILES | Slope × 10^3 OD units/μM (ABTS radical cation quenching) [1, 6] | effect on iron-mediated oxidative DNA damage (in words) (iron-loaded hepatocytes) | Slope × 10^3 OD units/μM (ABTS radical cation quenching) ([1]; Table 3, A734, 6-min reaction, values marked b are the inventors' unpublished results) | effect on ascorbate-mediated reduction of Fe(III) (in words) [2] | effect on ascorbate-mediated reduction of Fe(III) (in words) ([2]; listed as 1,2-dimethyl-3-hydroxypyridin-4-one) | Damage (%) ([3]; 650 μmol kg^−1 intracolonically 30 min before 4% acetic acid, mean ± standard deviation) | protection against acetic acid-induced colonic damage (in words) ([3]; intracolonic, image analysis and MPO assay) | Slope × 10^3 OD units/μM (ABTS radical cation quenching) [4] | MPO activity [5] |
| --- | --- | --- | --- | --- | --- | --- | --- | --- | --- |
| C[C@]1(C(=O)O)CSC(c2ncccc2O)=N1 [DFT, desferrithiocin] | −0.9 × 10^3 OD units/μM | prevented damage | – | – | – | – | – | – | – |
| Cc1c(O)c(=O)ccn1C [Compound L1, 1,2-Dimethyl-3-hydroxypyridin-4-one, reference compound] | −52.9 × 10^3 OD units/μM | potentiated iron-mediated oxidative DNA damage | −53^b × 10^3 OD units/μM | promoted the reaction; also recorded: promoted ascorbate-mediated reduction of Fe(III) | increased the rate of iron(III) reduction | – | – | – | – |
| C[C@]1(C(=O)O)CSC(c2ccc(O)cc2O)=N1 [4′-(HO)-DADFT] | −105.6 × 10^3 OD units/μM | – | – | – | – | 62 ± 10 | did not protect | −106 × 10^3 OD units/μM | 64192 ± 30802 mAU min^−1g of colonic tissue^−1 |
